Like-named read-outs stand apart in the source and are kept apart here.
What was measured:
[1] = color photographs, dispersed in water
[2] = β-carotene solubility in organic solvents; type: physicochemical; settings: organic solvent or mixture
[3] = cited from earlier work; for Comments: stability: light, heat, acid, oxidation, SO2, ascorbic acid; for Comments: solubility: water / lipid solubility

Row | Compound | Comments: stability ([3]; in presence of ascorbic acid) | Comments: solubility [3] | further results
1 | CC1=C(/C=C/C(C)=C/C=C/C(C)=C/C=C/C=C(C)/C=C/C=C(C)/C=C/C2=C(C)CCCC2(C)C)C(C)(C)CCC1 [β-carotene] | – | – | color and distribution in water [1]: non-uniform color and distribution; solubility [2]: ≤ 20 mg/mL
2 | Cc1c(C(=O)O)c(O)cc2c1C(=O)c1c(O)c([C@@H]3O[C@H](CO)[C@@H](O)[C@H](O)[C@H]3O)c(O)c(O)c1C2=O [Carmine, carminic acid, carminic acid] | Fades in the presence of ascorbic acid or SO2 | Water soluble | Comments: stability ([3]; to light, heat and acid): Good stability to light, heat, and acid
3 | COc1cc(/C=C/C(=O)CC(=O)/C=C/c2ccc(O)c(OC)c2)ccc1O [Curcumin] | – | low water solubility | –
4 | Chlorophyll | – | Liposoluble. Not allowed as a colorant in the U.S. | –
5 | CC1=C[C@H](O)CC(C)(C)[C@H]1/C=C/C(C)=C/C=C/C(C)=C/C=C/C=C(C)/C=C/C=C(C)/C=C/C1=C(C)C[C@@H](O)CC1(C)C [Lutein] | Fades in the presence of ascorbic acid. | – | Comments: stability ([3]; to light): Poor stability to light, heat, acid, oxidation, and SO2.
6 | Capsanthin/capsorubin | – | – | Comments: stability [3]: Fair stability to light and heat

Reference: patent US9707185B2, “Water-soluble nanoparticles containing water-insoluble compounds” (Board of Supervisors of Louisana State University And …, priority 2007, dated 2017)
